# From patent publication US20140303546A1, “LASER ASSISTED DELIVERY OF FUNCTIONAL CELLS, PEPTIDES AND NUCLEOTIDES” (priority 2011, published 2014)
# System: Methicillin resistant Staphylococcus aureus (MRSA) biofilms
# Test: MRSA biofilm deep partial thickness wound model
# Format: in vivo
# Details: 24 hours after treatment; for reduction of MRSA counts in wounds: porcine wounds
# Protocol: Rectangular wounds measuring (10 mm×7 mm×0.5 mm) were made on the paravertebral and thoracic area (porcine) with a specialized electrokeratome fitted with a 7 mm blade. Wounds were inoculated with 250 μL of a 10^6 CFU/ml suspension and covered individually with a polyurethane film dressing to allow for biofilm formation. After 24 hours, the dressings were removed and wounds were randomly assigned to one of the following treatment groups: 1) untreated control, 2) ErYag, 3) ErYag plus gentamycin or 3) gentamycin alone. After treatment the wounds were covered with a new polyurethane film dressing and after 24 hours wounds were recovered for MRSA counts using a well published scrub technique. Oxicillin resistance screening agar (ORSAB) was used to isolate MRSA from the wounds. All plates were incubated aerobically overnight (16-24 hours) at 37° C., after which the number of viable colonies will be counted.
# Methicillin resistant Staphylococcus aureus (MRSA) biofilms were created using a deep partial thickness wound model (described above). Wounds were randomly assigned to one of the following treatment groups: 1) untreated control, 2) ErYag, 3) ErYag plus gentamycin or 3) gentamycin alone. Twenty four hours after treatment, MRSA was recovered. […] However in combination (Laser+gentamycin) were able to reduce MRSA counts by 1.72 Log CFU/ml.
# [1] = in combination with ErYag laser
substance,measurement,setting,value
gentamycin,reduction of MRSA counts in wounds,gentamycin alone,0.6 Log CFU/ml
same,reduction in MRSA,[1],98.09%
same,reduction of MRSA counts in wounds,[1],1.72 Log CFU/ml
